Source: publication PMC8151276, “An Integrated Approach toward NanoBRET Tracers for Analysis of GPCR Ligand Engagement” (Molecules, 2021)

Legend:
Type in all cases: binding
GABBR1 = target: T1, GABBR1 (Homo sapiens, UniProt Q9UBS5); assay: NanoBRET screen HiBiT-GABBR1 in HEK293
T1 construct: purchased Promega (in-house HiBiT-GPCR construct library, NanoBRET)
Procedure: (§1) Each tracer candidate was screened across the entire library of HiBiT-GPCR constructs using NanoBRET as the detection modality. As depicted in Figure 4A, the specificity of interactions was evaluated through decrease in BRET due to competitive displacement of a bound tracer by excess parental compound. Each tracer was analyzed for binding to each HiBiT-GPCR fusion in the absence and in the presence of competing parental compound. Briefly, HEK293 cells were transfected with HiBiT-GPCR constructs diluted into promoterless DNA to reduce expression and maximize translocation to the cell surface. Each tracer candidate was then screened at concentrations of 1 μM and 0.1 μM across cells expressing these fusions. Cells were treated for 1.5 h with tracer either alone or in the presence of 20 μM competing parental compound (i.e., control). BRET was measured upon addition of purified LgBiT and subsequent complementation with HiBiT genetically fused to a GPCR. The specificity of interactions was assessed through a decrease in BRET signal due to competitive displacement of the bound tracer. To further gauge the robustness of these interactions, the fold response over the control (i.e., BRETtracer/BRETcontrol) was calculated. We chose a 1.5-fold response, which translates to ≥7-fold signal over noise as the minimal threshold required to score an interaction as positive. […]. Below we highlight the screening results obtained for our exemplary fluorescent tracers based on Clozapine, Amitriptyline and AZD1283.
(§2) HiBiT-GPCR DNA constructs were diluted in 10 mM Tris pH 8 to a final concentration of 0.01 μg/μL, arrayed in 96-well plates and stored at −20 °C. For transfection, HEK293 cells were suspended in Opti-MEM (without phenol red) supplemented with 2% fetal bovine serum (Seradigm) and 100 units/mL penicillin–streptomycin (Gibco) at a final concentration of 220,000 cells/mL and dispensed into white 96-well plates at 90 μL/well. Subsequent transfections and screens were carried using an Agilent Bravo Automated Liquid Handling Platform. First, the 96-well HiBiT DNA arrays were diluted 25-fold in Opti-MEM (without serum or phenol red) to a final concentration of 0.0004 μg/μL and 20 μL of the diluted DNAs were transferred into new 96-well plates. Next, promoterless carrier DNA (1 μg/μL) was diluted 25-fold (0.04 μg/μL) and then dispensed into the diluted arrays at 20 μL/well. Following brief mixing, Viafect transfection reagent (Promega) diluted 16-fold into Opti-MEM was dispensed into the plates at 40 μL/well. After mixing by pipetting, plates were incubated for 10 min on the pipetting station deck. The DNA-transfection reagent complexes were then added to plates containing cells. To facilitate the screen, 10 μL of DNA-transfection reagent complexes were added in duplicates to the top 4 and bottom 4 rows, resulting in two identical 48-well arrays per plate. Plates with transfected cells were incubated for 18–20 h at 37 °C/5% CO2. A screen of each tracer across the entire library using two different concentrations requires duplicate plates of transfected cells. Depending on the number of tracers being screened, transfections can be scaled up using the same ratios. The next day, for each tracer, four 20× screening solutions in tracer dilution buffer (Promega) were prepared: two duplicates at final concentration of 20 μM and two duplicates at a final concentration of 2 μM. A competing unmodified compound was added to one of each duplicate at a final concentration of 400 μM. The four resulting solutions were diluted 4-fold in Opti-MEM without serum or phenol red to generate 5× solutions (5 µM and 0.5 µM tracer +/− 100 μM competing compound). To screen the library, a BioTek MultiFlo FX liquid dispenser was used to dispense 22.5 µL of tracer solution to the top 4 rows and 22.5 µL tracer + competing compound solution to the 4 bottom rows. Plates were briefly mixed on an orbital shaker and incubated for 1.5 h at room temperature. […]

GRM2 = target: T2, GRM2 (Homo sapiens, UniProt Q14416); assay: NanoBRET screen HiBiT-GRM2 in HEK293
T2 construct: purchased Promega (in-house HiBiT-GPCR construct library, NanoBRET)
T2 sequence (Q14416 19-872): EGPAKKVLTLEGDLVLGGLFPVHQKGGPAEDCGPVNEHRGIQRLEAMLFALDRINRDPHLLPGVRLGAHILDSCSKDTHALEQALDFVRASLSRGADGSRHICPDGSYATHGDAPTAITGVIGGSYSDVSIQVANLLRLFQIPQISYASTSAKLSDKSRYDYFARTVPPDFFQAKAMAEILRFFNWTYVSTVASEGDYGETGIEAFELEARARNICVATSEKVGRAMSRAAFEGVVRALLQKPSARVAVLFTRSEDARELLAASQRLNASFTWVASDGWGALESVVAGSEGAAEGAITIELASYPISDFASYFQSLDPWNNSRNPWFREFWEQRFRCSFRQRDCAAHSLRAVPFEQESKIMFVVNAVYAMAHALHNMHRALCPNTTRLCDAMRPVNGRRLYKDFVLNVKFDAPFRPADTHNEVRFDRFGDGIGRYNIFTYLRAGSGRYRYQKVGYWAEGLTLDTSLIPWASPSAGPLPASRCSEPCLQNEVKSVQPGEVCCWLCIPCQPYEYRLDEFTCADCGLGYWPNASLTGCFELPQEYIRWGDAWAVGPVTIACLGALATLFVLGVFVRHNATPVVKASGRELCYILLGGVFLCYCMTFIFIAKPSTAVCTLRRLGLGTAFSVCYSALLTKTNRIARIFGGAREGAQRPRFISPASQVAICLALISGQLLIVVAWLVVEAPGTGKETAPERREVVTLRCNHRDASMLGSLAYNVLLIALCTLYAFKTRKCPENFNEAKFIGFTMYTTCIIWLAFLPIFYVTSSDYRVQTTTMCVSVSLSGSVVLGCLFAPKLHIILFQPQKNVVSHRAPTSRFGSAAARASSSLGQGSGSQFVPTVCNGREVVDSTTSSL
Procedure: as §1, §2

TACR2 = target: T3, TACR2 (Homo sapiens, UniProt P21452); assay: NanoBRET screen HiBiT-TACR2 in HEK293
T3 construct: purchased Promega (in-house HiBiT-GPCR construct library, NanoBRET)
T3 sequence (P21452 1-398): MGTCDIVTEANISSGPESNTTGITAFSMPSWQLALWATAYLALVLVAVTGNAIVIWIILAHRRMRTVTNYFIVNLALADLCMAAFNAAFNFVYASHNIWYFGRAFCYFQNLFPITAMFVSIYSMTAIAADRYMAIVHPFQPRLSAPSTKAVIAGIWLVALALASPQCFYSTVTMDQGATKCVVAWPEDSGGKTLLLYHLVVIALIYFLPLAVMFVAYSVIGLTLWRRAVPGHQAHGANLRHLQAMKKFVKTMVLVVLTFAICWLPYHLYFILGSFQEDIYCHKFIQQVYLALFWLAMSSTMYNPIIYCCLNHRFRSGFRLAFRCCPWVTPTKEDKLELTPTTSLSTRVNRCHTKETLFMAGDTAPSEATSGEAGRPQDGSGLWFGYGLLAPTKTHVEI
Procedure: as §1, §2

[1] = tracer at 0.1μM, listed as amitriptyline-b-2-NB590
[2] = tracer at 1μM, listed as amitriptyline-b-2-NB590

T1 sequence (Q9UBS5 15-961 limits assumed): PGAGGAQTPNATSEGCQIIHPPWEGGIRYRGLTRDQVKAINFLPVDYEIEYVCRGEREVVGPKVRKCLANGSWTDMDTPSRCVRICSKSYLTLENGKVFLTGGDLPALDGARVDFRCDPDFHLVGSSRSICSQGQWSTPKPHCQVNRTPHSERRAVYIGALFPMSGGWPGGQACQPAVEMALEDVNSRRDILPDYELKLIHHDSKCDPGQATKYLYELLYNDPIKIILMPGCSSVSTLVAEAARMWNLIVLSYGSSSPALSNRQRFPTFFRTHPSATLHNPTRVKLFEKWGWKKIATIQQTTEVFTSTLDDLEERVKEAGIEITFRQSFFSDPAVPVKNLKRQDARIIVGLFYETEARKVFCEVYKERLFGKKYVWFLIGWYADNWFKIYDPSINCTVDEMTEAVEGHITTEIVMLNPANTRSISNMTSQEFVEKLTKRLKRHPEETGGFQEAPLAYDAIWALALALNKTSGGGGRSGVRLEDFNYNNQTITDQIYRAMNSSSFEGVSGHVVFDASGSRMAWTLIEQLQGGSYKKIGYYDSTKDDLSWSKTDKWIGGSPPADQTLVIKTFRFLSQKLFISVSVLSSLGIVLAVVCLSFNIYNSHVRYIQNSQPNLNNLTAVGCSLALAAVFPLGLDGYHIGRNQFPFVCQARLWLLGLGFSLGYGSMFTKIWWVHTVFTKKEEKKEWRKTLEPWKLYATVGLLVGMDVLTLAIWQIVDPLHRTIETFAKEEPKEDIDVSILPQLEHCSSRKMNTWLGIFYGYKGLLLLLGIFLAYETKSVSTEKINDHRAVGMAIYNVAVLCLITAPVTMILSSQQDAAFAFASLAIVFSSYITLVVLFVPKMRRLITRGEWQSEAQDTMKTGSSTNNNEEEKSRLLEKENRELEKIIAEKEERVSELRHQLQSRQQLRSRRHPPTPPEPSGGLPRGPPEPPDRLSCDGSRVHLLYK

Structure (SMILES) | NanoBRET Fold Response (GABBR1; GABBR1, tracer 0.1μM) | NanoBRET Fold Response (GABBR1; GABBR1, tracer 1μM) | NanoBRET Fold Response (GRM2; GRM2, tracer 0.1μM) | NanoBRET Fold Response (GRM2; GRM2, tracer 1μM) | NanoBRET Fold Response (TACR2; TACR2, tracer 0.1μM) | NanoBRET Fold Response (TACR2; TACR2, tracer 1μM) | further results
O=C(CCc1ccc2n1[B-](F)(F)[N+]1=C(c3ccc[nH]3)C=CC1=C2)NCc1ccc(C(=O)NCCOCCC(=O)N[C@@H]2CC[C@@]3(O)[C@H]4Cc5ccc(O)c6c5[C@@]3(CCN4CC3CC3)[C@H]2O6)cc1 [Naltrexone-3-NB590] | 0.93 | 0.49 | 0.92 | 0.98 | 0.82 | 0.91 | 
CCCn1c(=O)c2[nH]c(-c3ccc(OCC(=O)NCCNC(=O)CCOCCNC(=O)c4ccc(CNC(=O)CCc5ccc6n5[B-](F)(F)[N+]5=C(c7ccc[nH]7)C=CC5=C6)cc4)cc3)nc2n(CCC)c1=O [XAC-3-NB590] | 0.86 | 1.00 | 1.01 | 1.03 | 0.96 | 1.21 | 
CC(C)N(CC[C@H](c1ccccc1)c1cc(CCNC(=O)c2ccc(CNC(=O)CCc3ccc4n3[B-](F)(F)[N+]3=C(c5ccc[nH]5)C=CC3=C4)cc2)ccc1O)C(C)C [Tolterodine-BZ-NB590] | 0.92 | 0.87 | 1.00 | 0.15 | 1.38 | 1.40 | 
COc1ccc2[nH]c(-c3ccc(CNC(=O)CCOCCOCCOCCOCCNC(=O)CCc4ccc5n4[B-](F)(F)[N+]4=C(c6ccc[nH]6)C=CC4=C5)cc3)c(CCNC(C)=O)c2n1 [AzomelatoninICO9-2-NB590] |  |  |  |  |  |  | NanoBRET Fold Response (GABBR1; 0.1μM tracer): 0.66; NanoBRET Fold Response (GABBR1; 1μM tracer): 0.57; NanoBRET Fold Response (GRM2; 0.1μM tracer): 1.11; NanoBRET Fold Response (GRM2; 1μM tracer): 0.95; NanoBRET Fold Response (TACR2; 0.1μM tracer): 0.37; NanoBRET Fold Response (TACR2; 1μM tracer): 0.84
CN1CCN(C2=Nc3cc(Cl)ccc3N(CC(=O)NCCOCCOCCOCCOCCNC(=O)CCc3ccc4n3[B-](F)(F)[N+]3=C(c5ccc[nH]5)C=CC3=C4)c3ccccc32)CC1 [Clozapine-c-2-NB590] |  |  |  |  |  |  | NanoBRET Fold Response (GABBR1; GABBR1, 0.1μM tracer): 0.97; NanoBRET Fold Response (GABBR1; GABBR1, 1μM tracer): 0.89; NanoBRET Fold Response (GRM2; GRM2, 0.1μM tracer): 0.97; NanoBRET Fold Response (GRM2; GRM2, 1μM tracer): 1.00; NanoBRET Fold Response (TACR2; TACR2, 0.1μM tracer): 0.93; NanoBRET Fold Response (TACR2; TACR2, 1μM tracer): 0.88
COc1ccccc1N1CCN(CCCCN2C(=O)c3ccc(CNC(=O)CCOCCNC(=O)c4ccc(CNC(=O)CCc5ccc6n5[B-](F)(F)[N+]5=C(c7ccc[nH]7)C=CC5=C6)cc4)cc3C2=O)CC1 [NAN-190-3-NB590] | 0.80 | 1.07 | 1.03 | 1.03 | 1.12 | 1.09 | 
Cc1nc2n(c(=O)c1CCN1CCC(c3noc4cc(F)ccc34)CC1)CCCC2OC(=O)NCCOCCOCCOCCOCCNC(=O)CCc1ccc2n1[B-](F)(F)[N+]1=C(c3ccc[nH]3)C=CC1=C2 (centres unmarked) [Risperidone-2-NB590] | 1.09 | 0.87 | 0.96 | 1.04 | 1.18 | 1.09 | 
O=C(CCOCCOCCOCCOCCNC(=O)CCc1ccc2n1[B-](F)(F)[N+]1=C(c3ccc[nH]3)C=CC1=C2)NCCCN1CCN(C2=Nc3ccccc3Oc3ccc(Cl)cc32)CC1 [Loxapine-a-2-NB590] | 1.03 | 0.92 | 1.00 | 1.25 | 0.86 | 0.64 | 
COc1ccccc1N1CCN(CCCCN2C(=O)c3ccc(CNC(=O)CCOCCOCCOCCOCCNC(=O)CCc4ccc5n4[B-](F)(F)[N+]4=C(c6ccc[nH]6)C=CC4=C5)cc3C2=O)CC1 [NAN-190-2-NB590] | 0.88 | 0.93 | 0.26 | 1.00 | 0.88 | 1.04 | 
CC(C)N(CC[C@H](c1ccccc1)c1cc(CCNC(=O)CCOCCOCCOCCOCCNC(=O)CCc2ccc3n2[B-](F)(F)[N+]2=C(c4ccc[nH]4)C=CC2=C3)ccc1O)C(C)C [Tolterodine-2-NB590] | 1.32 | 1.14 | 0.99 | 0.97 | 0.87 | 1.41 | 
N#CN=C(NCCCOc1cccc(CN2CCCCC2)c1)NCCNC(=O)CCOCCOCCOCCOCCNC(=O)CCc1ccc2n1[B-](F)(F)[N+]1=C(c3ccc[nH]3)C=CC1=C2 [Aminopotentidine-2-NB590] | 1.06 | 1.00 | 1.05 | 0.99 | 0.98 | 1.02 | 
CCOC(=O)c1cc(C#N)c(N2CCC(C(=O)NS(=O)(=O)Cc3ccccc3/C=C/C(=O)NCCNC(=O)CCc3ccc4n3[B-](F)(F)[N+]3=C(c5ccc[nH]5)C=CC3=C4)CC2)nc1C [AZD1283-1-NB590] |  |  |  |  |  |  | NanoBRET Fold Response (GABBR1; GABBR1, 0.1μM): 1.05; NanoBRET Fold Response (GABBR1; GABBR1, 1μM): 1.13; NanoBRET Fold Response (GRM2; GRM2, 0.1μM): 1.00; NanoBRET Fold Response (GRM2; GRM2, 1μM): 0.43; NanoBRET Fold Response (TACR2; TACR2, 0.1μM): 1.09; NanoBRET Fold Response (TACR2; TACR2, 1μM): 1.04
CN(C)CCC=C1c2ccccc2CCc2ccc(C(=O)NCCNC(=O)CCOCCOCCOCCOCCNC(=O)CCc3ccc4n3[B-](F)(F)[N+]3=C(c5ccc[nH]5)C=CC3=C4)cc21 [Amitriptyline-b-2-NB590] |  |  | 0.97 | 0.98 |  |  | NanoBRET Fold Response (GABBR1; [1]): 1.11; NanoBRET Fold Response (GABBR1; [2]): 0.85; NanoBRET Fold Response (TACR2; [1]): 0.86; NanoBRET Fold Response (TACR2; [2]): 1.17
CN(C)CCC=C1c2ccccc2CCc2ccc(C(=O)NCCNC(=O)CCOCCOCCOCCOCCNC(=O)CCc3ccc4n3[B-](F)(F)[N+]3=C(c5ccc[nH]5)C=CC3=C4)cc21 [Amitriptyline-a-2-NB590] |  |  |  |  |  |  | NanoBRET Fold Response (GABBR1; tracer at 0.1μM): 0.93; NanoBRET Fold Response (GABBR1; tracer at 1μM): 0.91; NanoBRET Fold Response (TACR2; tracer at 0.1μM): 1.10; NanoBRET Fold Response (TACR2; tracer at 1μM): 1.13
O=C(CCc1ccc2n1[B-](F)(F)[N+]1=C(c3ccc[nH]3)C=CC1=C2)NCCOCCOCCNC(=O)OCCOCCN1CCN(C2=Nc3ccccc3Sc3ccccc32)CC1 [Quetiapine-a-2-NB590] | 1.22 | 0.93 | 0.92 | 1.06 | 1.22 | 0.72 | 
CN(CCC=C1c2ccccc2CCc2ccccc21)C(=O)CCOCCOCCOCCOCCNC(=O)CCc1ccc2n1[B-](F)(F)[N+]1=C(c3ccc[nH]3)C=CC1=C2 [Amitriptyline-e-2-NB590] |  |  |  |  |  |  | NanoBRET Fold Response (GABBR1; tracer at 1μM): 1.09
